Test results published in paper PMC4068261 (Journal of natural products, 2014).

Tests used:
[1] = system: HIV-1; experiment: microbe, parasite or virus in culture; assay type: cell-based; settings: Human immunodeficiency virus 1, HOG.R5, read-out: anti-HIV activity IC50
[2] = system: HIV-1; settings: previous discovery; cited from earlier work

Compound	IC50 [1] [µM]	anti-HIV activity (in words) [2]
COc1cc(O)cc2c1C(=O)C[C@@H](c1ccccc1)O2 [Compound 5, alpinetin]	130	
C=Cc1c(C)c2cc3nc(c4c5[nH]c(cc6nc(cc1[nH]2)C(C)=C6CC)c(C)c5C(=O)[C@@H]4C(=O)OC)[C@@H](CCC(=O)O)[C@@H]3C [pheophorbide a]		potent anti-HIV agent
